test system: redroot pigweed; test: Test Example 4: herbicidal effect by soil treatment (Table 19, symbol N); type: in vivo, redroot pigweed (Amaranthus retroflexus); details: amount of applied herbicide 320 g/ha
How it was run: (§1)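 Seeds were sown in sterilized diluvial soil and covered with about 1.5 cm of soil. An emulsion formulation diluted with water to a predetermined herbicide amount was sprayed evenly onto the soil surface. Plants grew in a greenhouse at 25° C. to 30° C., and the effect was scored three weeks after application using criteria from an earlier test.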

Row | Structure (SMILES) | herbicidal effect rating, N: redroot pigweed
1 | Cc1nn(C)c(=O)c(-c2c(-c3ccc4c(c3)OCO4)sc3ccccc23)c1O [1-087] | 5 (Herbicidal rate of 90% or more (almost completely withered))
2 | Cc1nn(C)c(=O)c(-c2c(-c3ccc4c(c3)OCCO4)sc3ccccc23)c1O [1-089] | 4 (Herbicidal rate of 70% or more and less than 90%)

test system: barnyard grass; test: Test Example 3: herbicidal effect by foliage application, Wagner pot (Table 18, symbol H); type: in vivo, barnyard grass (Echinochloa crus-galli); details: 320 g/ha
How it was run: (§2)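 Plants were sown in alluvial soil held under 0.1–0.5 cm standing water and grown 14 days in a greenhouse at 25–30 °C. An emulsifiable formulation, water-diluted to the set dose, was then sprayed onto the foliage, and effects were scored three weeks later using previously defined criteria.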

Row | Structure (SMILES) | herbicidal effect on H (barnyard grass), rating 0-5
3 | Cc1nn(C)c(=O)c(-c2c(-c3ccc4c(c3)OCO4)sc3ccccc23)c1O [1-087] | 4 (Herbicidal rate of 70% or more and less than 90%)
4 | Cc1nn(C)c(=O)c(-c2c(-c3ccc4c(c3)OCCO4)sc3ccccc23)c1O [1-089] | 5 (Herbicidal rate of 90% or more (almost completely withered))

test system: Italian ryegrass; test: Test Example 4: herbicidal effect by soil treatment (Table 19, symbol K); type: in vivo, Italian ryegrass (Lolium multiflorum); details: amount of applied herbicide 320 g/ha
How it was run: as §1

Row | Structure (SMILES) | herbicidal effect rating, K: Italian ryegrass
5 | Cc1nn(C)c(=O)c(-c2c(-c3ccc4c(c3)OCO4)sc3ccccc23)c1O [1-087] | 3 (Herbicidal rate of 40% or more and less than 70%)
6 | Cc1nn(C)c(=O)c(-c2c(-c3ccc4c(c3)OCCO4)sc3ccccc23)c1O [1-089] | 0 (Herbicidal rate of 5% or less (almost no effect))

test system: blackgrass; test: Test Example 5: herbicidal effect by foliage application, plastic box (Table 20, symbol J); type: in vivo, blackgrass (Alopecurus myosuroides); details: foliage application, 320 g/ha, three weeks after application
How it was run: (§3)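 Plants sown in sterilized diluvial soil and grown 14 days in a greenhouse at 25° C to 30° C, then sprayed on the foliage with the compound's emulsion diluted in water to a predetermined herbicide amount. Injury to weeds and crops scored three weeks after application on a visual rating scale.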

Row | Structure (SMILES) | herbicidal effect grade, J: blackgrass
7 | Cc1nn(C)c(=O)c(-c2c(-c3ccc4c(c3)OCO4)sc3ccccc23)c1O [1-087] | 3 (Herbicidal rate of 40% or more and less than 70%)

same assay, conditions: foliage application, AAH 320 g/ha, three weeks after application

Row | Structure (SMILES) | J: blackgrass, herbicidal effect
8 | Cc1nn(C)c(=O)c(-c2c(-c3ccc4c(c3)OCCO4)sc3ccccc23)c1O [1-089] | 0 (Herbicidal rate of 5% or less (almost no effect))

test system: rice flat sedge; test: Test Example 3: herbicidal effect by foliage application, Wagner pot (Table 18, symbol E); type: in vivo, rice flat sedge (Cyperus iria); details: 320 g/ha
How it was run: as §2

Row | Structure (SMILES) | herbicidal effect on E (rice flat sedge), rating 0-5
9 | Cc1nn(C)c(=O)c(-c2c(-c3ccc4c(c3)OCO4)sc3ccccc23)c1O [1-087] | 5 (Herbicidal rate of 90% or more (almost completely withered))
10 | Cc1nn(C)c(=O)c(-c2c(-c3ccc4c(c3)OCCO4)sc3ccccc23)c1O [1-089] | 5 (Herbicidal rate of 90% or more (almost completely withered))

test system: Japanese bulrush; test: Test Example 1: herbicidal activity, application before weed generation under submerged conditions (Table 16, symbol B); type: in vivo, Japanese bulrush (Schoenoplectus juncoides); details: 320 g/ha applied herbicide
How it was run: (§4)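 Submerged Wagner pots (alluvial soil, 4 cm water) sown with weed seeds and planted with 2.5-leaf rice seedlings; emulsifiable concentrate diluted in water applied to water surface on sowing day. Held in greenhouse at 25-30 °C; injury scored 0-5 by herbicidal rate after three weeks.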

Row | Structure (SMILES) | Herbicidal effect on B: Japanese bulrush (grade 0-5)
11 | Cc1nn(C)c(=O)c(-c2c(-c3ccc4c(c3)OCO4)sc3ccccc23)c1O [1-087] | 1 (Herbicidal rate of 5% or more and less than 20%)
12 | Cc1nn(C)c(=O)c(-c2c(-c3ccc4c(c3)OCCO4)sc3ccccc23)c1O [1-089] | 4 (Herbicidal rate of 70% or more and less than 90%)

test system: late watergrass; test: Test Example 1: herbicidal activity, application before weed generation under submerged conditions (Table 16, symbol A); type: in vivo, late watergrass (Echinochloa oryzicola); details: 320 g/ha applied herbicide
How it was run: as §4

Row | Structure (SMILES) | Herbicidal effect on A: late watergrass (grade 0-5)
13 | Cc1nn(C)c(=O)c(-c2c(-c3ccc4c(c3)OCO4)sc3ccccc23)c1O [1-087] | 3 (Herbicidal rate of 40% or more and less than 70%)
14 | Cc1nn(C)c(=O)c(-c2c(-c3ccc4c(c3)OCCO4)sc3ccccc23)c1O [1-089] | 5 (Herbicidal rate of 90% or more (almost completely withered))

test system: Chinese sprangletop; test: Test Example 3: herbicidal effect by foliage application, Wagner pot (Table 18, symbol D); type: in vivo, chinese sprangletop (Leptochloa chinensis); details: 320 g/ha
How it was run: as §2

Row | Structure (SMILES) | herbicidal effect on D (Chinese sprangletop), rating 0-5
15 | Cc1nn(C)c(=O)c(-c2c(-c3ccc4c(c3)OCO4)sc3ccccc23)c1O [1-087] | 3 (Herbicidal rate of 40% or more and less than 70%)
16 | Cc1nn(C)c(=O)c(-c2c(-c3ccc4c(c3)OCCO4)sc3ccccc23)c1O [1-089] | 0 (Herbicidal rate of 5% or less (almost no effect))

test system: Italian ryegrass; test: Test Example 5: herbicidal effect by foliage application, plastic box (Table 20, symbol K); type: in vivo, Italian ryegrass (Lolium multiflorum); details: foliage application, 320 g/ha, three weeks after application
How it was run: as §3

Row | Structure (SMILES) | herbicidal effect grade, K: Italian ryegrass
17 | Cc1nn(C)c(=O)c(-c2c(-c3ccc4c(c3)OCO4)sc3ccccc23)c1O [1-087] | 3 (Herbicidal rate of 40% or more and less than 70%)

same assay, conditions: foliage application, AAH 320 g/ha, three weeks after application

Row | Structure (SMILES) | K: Italian ryegrass, herbicidal effect
18 | Cc1nn(C)c(=O)c(-c2c(-c3ccc4c(c3)OCCO4)sc3ccccc23)c1O [1-089] | 5 (Herbicidal rate of 90% or more (almost completely withered))

test system: redroot pigweed; test: Test Example 5: herbicidal effect by foliage application, plastic box (Table 20, symbol N); type: in vivo, redroot pigweed (Amaranthus retroflexus); details: foliage application, 320 g/ha, three weeks after application
How it was run: as §3

Row | Structure (SMILES) | herbicidal effect grade, N: redroot pigweed
19 | Cc1nn(C)c(=O)c(-c2c(-c3ccc4c(c3)OCO4)sc3ccccc23)c1O [1-087] | 5 (Herbicidal rate of 90% or more (almost completely withered))

same assay, conditions: foliage application, AAH 320 g/ha, three weeks after application

Row | Structure (SMILES) | N: redroot pigweed, herbicidal effect
20 | Cc1nn(C)c(=O)c(-c2c(-c3ccc4c(c3)OCCO4)sc3ccccc23)c1O [1-089] | 1 (Herbicidal rate of 5% or more and less than 20%)

test system: barnyard grass; test: Test Example 5: herbicidal effect by foliage application, plastic box (Table 20, symbol H); type: in vivo, barnyard grass (Echinochloa crus-galli); details: foliage application, 320 g/ha, three weeks after application
How it was run: as §3

Row | Structure (SMILES) | herbicidal effect grade, H: barnyard grass
21 | Cc1nn(C)c(=O)c(-c2c(-c3ccc4c(c3)OCO4)sc3ccccc23)c1O [1-087] | 4 (Herbicidal rate of 70% or more and less than 90%)

same assay, conditions: foliage application, AAH 320 g/ha, three weeks after application

Row | Structure (SMILES) | H: barnyard grass, herbicidal effect
22 | Cc1nn(C)c(=O)c(-c2c(-c3ccc4c(c3)OCCO4)sc3ccccc23)c1O [1-089] | 5 (Herbicidal rate of 90% or more (almost completely withered))

test system: late watergrass; test: Test Example 2: herbicidal activity, application during weed generation under submerged conditions (Table 17, symbol A); type: in vivo, late watergrass (Echinochloa oryzicola); details: AAH 320 g/ha; application during weed generation, submerged conditions
How it was run: (§5)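 3-wk visual-criteria score after one water-surface dose. Emulsion formulation, water-diluted to set rate; applied at 1–2 leaf stage; alluvial soil, 4 cm standing water; seeds co-sown; greenhouse 25–30° C.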

Row | Structure (SMILES) | herbicidal effect rating, A: late watergrass
23 | Cc1nn(C)c(=O)c(-c2c(-c3ccc4c(c3)OCO4)sc3ccccc23)c1O [1-087] | 2 (Herbicidal rate of 20% or more and less than 40%)
24 | Cc1nn(C)c(=O)c(-c2c(-c3ccc4c(c3)OCCO4)sc3ccccc23)c1O [1-089] | 5 (Herbicidal rate of 90% or more (almost completely withered))

test system: wild oat; test: Test Example 5: herbicidal effect by foliage application, plastic box (Table 20, symbol I); type: in vivo, wild oat (Avena fatua); details: foliage application, 320 g/ha, three weeks after application
How it was run: as §3

Row | Structure (SMILES) | herbicidal effect grade, I: wild oat
25 | Cc1nn(C)c(=O)c(-c2c(-c3ccc4c(c3)OCO4)sc3ccccc23)c1O [1-087] | 1 (Herbicidal rate of 5% or more and less than 20%)

same assay, conditions: foliage application, AAH 320 g/ha, three weeks after application

Row | Structure (SMILES) | I: wild oat, herbicidal effect
26 | Cc1nn(C)c(=O)c(-c2c(-c3ccc4c(c3)OCCO4)sc3ccccc23)c1O [1-089] | 0 (Herbicidal rate of 5% or less (almost no effect))

test system: oval-leafed pondweed; test: Test Example 2: herbicidal activity, application during weed generation under submerged conditions (Table 17, symbol C); type: in vivo, oval-leafed pondweed (Monochoria vaginalis); details: AAH 320 g/ha; application during weed generation, submerged conditions
How it was run: as §5

Row | Structure (SMILES) | herbicidal effect rating, C: oval-leafed pondweed
27 | Cc1nn(C)c(=O)c(-c2c(-c3ccc4c(c3)OCO4)sc3ccccc23)c1O [1-087] | 3 (Herbicidal rate of 40% or more and less than 70%)
28 | Cc1nn(C)c(=O)c(-c2c(-c3ccc4c(c3)OCCO4)sc3ccccc23)c1O [1-089] | 1 (Herbicidal rate of 5% or more and less than 20%)

test system: windgrass; test: Test Example 4: herbicidal effect by soil treatment (Table 19, symbol L); type: in vivo, windgrass (Apera spica-venti); details: amount of applied herbicide 320 g/ha
How it was run: as §1

Row | Structure (SMILES) | herbicidal effect rating, L: windgrass
29 | Cc1nn(C)c(=O)c(-c2c(-c3ccc4c(c3)OCO4)sc3ccccc23)c1O [1-087] | 0 (Herbicidal rate of 5% or less (almost no effect))
30 | Cc1nn(C)c(=O)c(-c2c(-c3ccc4c(c3)OCCO4)sc3ccccc23)c1O [1-089] | 0 (Herbicidal rate of 5% or less (almost no effect))

test system: green foxtail; test: Test Example 5: herbicidal effect by foliage application, plastic box (Table 20, symbol G); type: in vivo, green foxtail (Setaria viridis); details: foliage application, 320 g/ha, three weeks after application
How it was run: as §3

Row | Structure (SMILES) | herbicidal effect grade, G: green foxtail
31 | Cc1nn(C)c(=O)c(-c2c(-c3ccc4c(c3)OCO4)sc3ccccc23)c1O [1-087] | 5 (Herbicidal rate of 90% or more (almost completely withered))

same assay, conditions: foliage application, AAH 320 g/ha, three weeks after application

Row | Structure (SMILES) | G: green foxtail, herbicidal effect
32 | Cc1nn(C)c(=O)c(-c2c(-c3ccc4c(c3)OCCO4)sc3ccccc23)c1O [1-089] | 5 (Herbicidal rate of 90% or more (almost completely withered))
